A short description of series [1]: Stability of sample solutions in the dark/under light. Conditions: under light 30,000 lux, salts in water, acidic reference in 30% to 50% ethanol. Type of series: physicochemical. The procedure, abridged: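 Salt in water, or acidic reference in 30–50% aqueous ethanol, at about 10 ppm; UV absorbance scanned 200–800 nm at 0, 1, 2, 3 h, stored at 25° C dark or under 30,000 lux light. Relative content = max-peak absorbance at each time divided by 0 h value (100%).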

The nature of series [2]: Dilution and pH determination for sample solutions. The format is physicochemical. As to the method:
Method: 0.2500 g of a sample was accurately weighed and added to a 25 mL volumetric flask, dissolved with purified water, and diluted to a specified scale to prepare a 1.00% (10,000.0 ppm) initial solution. The initial solution was diluted with purified water in different ratios to prepare a series of solutions with a concentration of 1,000.0 ppm to 0.1 ppm. A pH value of each sample was determined three times.

A further series concerns the target chlorophyllase. Briefly: In vitro chlorophyllase-inhibiting activity test. The conditions noted are these: substrate chlorophyll 120 ppm, sample 0.3 ppm to 30.0 ppm. The format is biochemical, mung bean. As to the method: A chlorophyllase inhibition rate of a salt sample solution at each concentration was determined, and an IC50 value for a chlorophyllase inhibition activity of a salt sample was calculated.

Series [3] can be described thus: Water solubility of the prepared salts. The format is physicochemical.

On to magnesium iron chlorophyllin, for which the Relative content is 71.60% in series [1] (1 h), 62.44% in series [1] (2 h) and 63.14% in series [1] (3 h). Also, the pH entry is on record as “(6.94)” in series [2] (0.1 ppm in purified water); “(7.11)” in series [2] (1.0 ppm in purified water); “(7.40)” in series [2] (10.0 ppm in purified water); “(7.65)” in series [2] (20.0 ppm in purified water); “(7.78)” in series [2] (30.0 ppm in purified water); “(8.18)” in series [2] (100.0 ppm in purified water). Also, at chlorophyllase, the “IC50 for chlorophyllase inhibition activity” value stood at 5.26 ppm.

For the substance “potassium iron chlorophyllin [Example 30]”, in series [3], the solubility in water result is reported as “easily soluble”. In addition, the figures for the Relative content in series [1] (1 h), in series [1] (2 h) and in series [1] (3 h) were 72.04%, 65.63% and 57.54%, respectively. Besides, on chlorophyllase, the “IC50 for chlorophyllase inhibition activity” value was 5.09 ppm.

As to sodium chlorin [Example 53], in series [3], the solubility in water entry is “easily soluble”. Moreover, the Relative content in series [1] (1 h) is on record as 41.71%; in series [1] (2 h) it was 30.78%; in series [1] (3 h) it was 26.96%. The “IC50 for chlorophyllase inhibition activity” value on chlorophyllase came to 6.03 ppm.

As for zinc chlorin [Example 60], the solubility in water entry in series [3] was “slightly soluble”. In addition, the Relative content in series [1] (1 h) came out at 55.66%; in series [1] (2 h), 50.60%; in series [1] (3 h) it was 45.30%. Besides, at chlorophyllase, the “IC50 for chlorophyllase inhibition activity” value was found to be 6.37 ppm.

With zinc copper chlorophyllin [Example 50], the solubility in water entry in series [3] is recorded as “slightly soluble”. In addition, the Relative content is 69.84% in series [1] (1 h), 65.37% in series [1] (2 h) and 60.04% in series [1] (3 h). On chlorophyllase, the “IC50 for chlorophyllase inhibition activity” value is 14.19 ppm.

With zinc iron chlorin [Example 28], the solubility in water entry in series [3] was “slightly soluble”. Also, the Relative content in series [1] (1 h) was 71.19%; in series [1] (2 h), 65.23%; in series [1] (3 h), 61.37%. Further, at chlorophyllase, the “IC50 for chlorophyllase inhibition activity” value was 5.66 ppm.

zinc zinc chlorophyllin [Example 41]: in series [3], the solubility in water result was “slightly soluble”. In addition, the results for the Relative content in series [1] (1 h), in series [1] (2 h) and in series [1] (3 h) were 71.62%, 66.31% and 63.93%, respectively. The “IC50 for chlorophyllase inhibition activity” value at chlorophyllase worked out at 18.77 ppm.

The record behind these values is patent publication US20260123631A1, “NATURAL PORPHIN SALT AND USE THEREOF AS PLANT GROWTH REGULATOR AND PLANT IMMUNITY INDUCER” (NANJING BOSTEC BIOLOGICAL ENGINEERING CO., LTD, priority 2022, published 2026).
